In general, melting point refers to the temperature, or range, at which the solid turns liquid. With `O=C1CCN(c2ccc(CNC(=O)c3cccnc3Oc3ccc(F)cc3)cc2)CC1` [Example 92, 2-(4-Fluoro-phenoxy)-N-[4-(4-oxo-piperidin-1-yl)-benzyl]-nicotinamide], the melting point lay within 138 to 139 °C.
The same measure for `CC1(c2ccc(CNC(=O)c3cccnc3Oc3ccc(F)cc3)cc2)OCCO1` [Example 94, 2-(4-Fluoro-phenoxy)-N-[4-(2-methyl-[1,3]dioxolan-2-yl)-benzyl]-nicotinamide]: 78 to 80 °C.
The result for `O=C(NCc1sc(Cl)cc1Cl)c1cccnc1Oc1ccc(F)cc1` [Example 97, N-(3,5-Dichloro-thiophen-2ylmethyl)-2-(4-fluoro-phenoxy)-nicotinamide] reads 132 to 134 °C; that for `O=C(NCC1CC1)c1cccnc1Oc1cncc(Cl)c1` [Example 98, 2-(5-Chloro-pyridin-3-yloxy)-N-cyclopropylmethyl-nicotinamide], 105 to 107 °C; that for `CC(C)(O)c1ccc(CNC(=O)c2cccnc2Oc2ccc(F)c(C#N)c2)c(F)c1` [Example 99, 2-(3-Cyano-4-fluoro-phenoxy)-N-[2-fluoro4-(1-hydroxy-1-methyl-ethyl)-benzyl]-nicotinamide], 157 to 159 °C.
The same measure for `O=C(NCc1ccc(O)cc1)c1cccnc1Oc1ccc(F)cc1` [Example 103, 2-(4-Fluoro-phenoxy)-N-(4-hydroxy-benzyl)-nicotinamide]: 185 to 187 °C.
For `O=C(NCc1ccc(O)cc1)c1cccnc1Oc1cccnc1` [Example 104, N-(4-Hydroxy-benzyl)-2-(pyridin-3yloxy)-nicotinamide], the melting point lay in the range of 156 to 158 °C.
The result for `O=C1Cc2cc(CNC(=O)c3cccnc3Oc3cccc([N+](=O)[O-])c3)ccc2N1` [Example 106, 2-(3-Nitro-phenoxy)-N-(2-oxo-2,3-dihydro-1H-indol-5-ylmethyl)-nicotinamide] reads 190 to 192 °C; that for `CC(C)(O)c1ccc(CNC(=O)c2cccnc2Oc2cccc([N+](=O)[O-])c2)cc1` [Example 107, N-[4-(1-Hydroxy-1-methyl-ethyl)-benzyl]-2-(3-nitro-phenoxy)-nicotinamide], 43 to 45 °C; that for `Cc1cc(CNC(=O)c2cccnc2Oc2cccc([N+](=O)[O-])c2)cc(C)c1O` [Example 108, N-(4-Hydroxy-3,5-dimethyl-benzyl)-2-(3-nitro-phenoxy)-nicotinamide], 128 to 130 °C.
The result for `O=C(NCc1ccc(Cl)s1)c1cccnc1Oc1cccc([N+](=O)[O-])c1` [Example 109, N-(5-Chloro-thiophen-2-ylmethyl)-2-(3-nitro-phenoxy)-nicotinamide] reads 115 to 117 °C; that for `N#Cc1cccc(Oc2ncccc2C(=O)NCc2ccccc2Cl)c1` [Example 110, N-(2-Chloro-benzyl)-2-(3-cyano-phenoxy)-nicotinamide], 135 to 137 °C; that for `N#Cc1cccc(Oc2ncccc2C(=O)NCc2ccc(Cl)s2)c1` [Example 111, N-(5-Chloro-thiophen-2-ylmethyl)-2-(3-cyano-phenoxy)-nicotinamide], 145 to 147 °C.
The same measure for `N#Cc1cccc(Oc2ncccc2C(=O)NCc2ccc3c(c2)CC(=O)N3)c1` [Example 112, 2-(3-Cyano-phenoxy)-N-(2-oxo-2,3-dihydro-1H-indol-5-ylmethyl)-nicotinamide]: 197 to 199 °C.
`CC(C)(O)c1ccc(CNC(=O)c2cccnc2Oc2cccc(C#N)c2)cc1` [Example 113, 2-(3-Cyano-phenoxy)-N-[4-(1-hydroxy-1-methyl-ethyl)-benzyl]-nicotinamide]: the melting point lay in the range of 97 to 99 °C.
The same measure for `CC(C)(O)c1ccc(CNC(=O)c2cccnc2Oc2cccc(C#N)c2)c(Cl)c1` [Example 116, N-[2-Chloro-4-(1-hydroxy-1-methyl-ethyl)-benzyl]-2-(3-cyano-phenoxy)-nicotinamide]: 121 to 123 °C.
The same measure for `CCc1n[nH]c2ccc(C(NC(=O)c3cccnc3Oc3cccc(C#N)c3)C3CCCCC3)cc12` (stereo not shown) [Example 117, 2-(3-Cyano-phenoxy)-N-(-cyclohexyl-3-ethyl-1H-indazol-5-ylmethyl)-nicotinamide]: 56 to 58 °C; for `N#Cc1ccc(Oc2ncccc2C(=O)NCc2ccccc2Cl)cc1` [Example 119, N-(2-Chloro-benzyl)-2-(4-cyano-phenoxy)-nicotinamide]: 112 to 114 °C.
The same measure for `CC(=O)Nc1ccc(CNC(=O)c2cccnc2Oc2ccc(F)cc2)cc1` [Example 124, N-(4-Acetylamino-benzyl)-2-(4-fluoro-phenoxy)-nicotinamide]: 128 to 130 °C; for `CC(=O)Nc1cccc(Oc2ncccc2C(=O)NCc2ccc(C(C)(C)O)cc2)c1` [Example 126, 2(3-Acetylamino-phenoxy)-N-[4-(1-hydroxy-1-methyl-ethyl)-benzyl]-nicotinamide]: 155 to 157 °C; for `CC(C)(C)C(=O)Oc1ccc(CNC(=O)c2cccnc2Oc2ccc(F)cc2)cc1` [Example 130, 2,2-Dimethyl-propionic acid 4-({[2-(4-fluoro-phenoxy)-pyridine-3-carbonyl]-amino}-methyl)-phenyl ester]: 91 to 93 °C.
`CS(=O)(=O)Nc1ccc(CNC(=O)c2cccnc2Oc2ccc(F)cc2)cc1` [Example 131, 2-(4-Fluoro-phenoxy)-N-(4-methanesulfonylamino-benzyl)-nicotinamide] yielded a melting point of 107 to 109 °C.
The result for `O=C(NCC(O)c1ccccc1)c1cccnc1Oc1cccc(Cl)c1` (stereo not shown) [Example 133, 2-(3-Chloro-phenoxy)-N-(2-hydroxy-2-phenyl-ethyl)-nicotinamide] reads 118 to 119 °C; that for `O=C(Cc1ccccc1Cl)Nc1cccnc1Oc1ccc(F)cc1` [Example 136, 2-(2-Chloro-phenyl)-N-[2-(4-fluoro-phenoxy)-pyridin-3-yl]-acetamide], 73 to 75 °C; that for `CC(=O)c1ccc(CC(=O)Nc2cccnc2Oc2ccc(F)cc2)cc1` [Example 137, 2-(4-Acetyl-phenyl)-N-[2-(4-fluoro-phenoxy)-pyridin-3-yl]-acetamide], 118 to 120 °C.
The result for `COc1ccccc1NC(=O)Nc1cccc(Oc2ncccc2C(=O)NCc2ccccc2Cl)c1` [Example 138, N-(2-Chloro-benzyl)-2-(3-[3-(2-methoxy-phenyl)-ureido]-phenoxy}-nicotinamide] reads 180 to 182 °C.
`O=C(Nc1cccc(Oc2ncccc2C(=O)NCc2ccccc2Cl)c1)Nc1cccc2ccccc12` [Example 139, N-(2-Chloro-benzyl)-2-[3-(3-naphthalen-1-yl-ureido)-phenoxy]-nicotinamide]: the melting point is 121 to 123 °C.
The result for `Nc1cccc(Oc2ncccc2C(=O)NCc2ccccc2Cl)c1` [Example 144, 2-(3-Amino-phenoxy)-N-(2-chloro-benzyl)-nicotinamide] reads 101 to 103 °C; that for `CC(=O)c1ccc(CNC(=O)c2cccnc2Oc2cccnc2)s1` [Example 159, N-(5-Acetyl-thiophen-2-ylmethyl)-2-(pyridin-3-yloxy)-nicotinamide], 201 to 203 °C.
The same measure for `CC(O)c1ccc(CNC(=O)c2cccnc2Oc2cccnc2)s1` (stereo not shown) [Example 160, N-[5-(1-Hydroxy-ethyl)-thiophen-2-ylmethyl]-2-(pyridin-3yloxy)-nicotinamide]: 92 to 94 °C; for `O=C(O)c1cc2cc(CNC(=O)c3cccnc3Oc3ccc(F)cc3)ccc2[nH]1` [Example 165, 5-({[2-(4-Fluoro-phenoxy)-pyridine-3-carbonyl]-amino}-methyl)-1H-indole-2-carboxylic acid]: 236 to 238 °C; for `CCCCNC(=O)c1cccnc1Oc1cccnc1` [Example 174, N-Butyl-2-(pyridin-3-yloxy)-nicotinamide]: 55 to 56 °C.
In turn, `CCCCCNC(=O)c1cccnc1Oc1cccnc1` [Example 175, N-Pentyl-2-(pyridin-3-yloxy)-nicotinamide] registered a melting point of 61 to 62 °C.
The result for `CC[C@H](C)NC(=O)c1cccnc1Oc1cccnc1` [Example 176, (S)-N-sec-Butyl-2-(pyridin-3-yloxy)-nicotinamide] reads 64 to 65 °C; that for `CC[C@@H](C)NC(=O)c1cccnc1Oc1cccnc1` [Example 177, (R)-N-sec-Butyl-2-(pyridin-3-yloxy)-nicotinamide], 55 to 56 °C; that for `NS(=O)(=O)c1ccc(CNC(=O)c2cccnc2Oc2cccnc2)cc1` [Example 178, 2-(Pyridin-3-yloxy)-N-(4-sulfamoyl-benzyl)-nicotinamide], 196 to 197 °C.
The result for `NS(=O)(=O)N1CCC(CNC(=O)c2cccnc2Oc2cccnc2)CC1` [Example 179, 2-(Pyridin-3-yloxy)-N-(1-sulfamoyl-piperidin-4-ylmethyl)-nicotinamide] reads 165 to 166 °C.
`O=C(NCc1cccc2[nH]ccc12)c1cccnc1Oc1cccnc1` [Example 180, N-(1H-Indol-4-ylmethyl)-2-(pyridin-3yloxy)-nicotinamide] displayed a melting point of 134 to 135 °C.
The result for `O=C(NCc1ccccn1)c1cccnc1Oc1cccnc1` [Example 181, N-Pyridin-2-ylmethyl-2-(pyridin-3-yloxy)-nicotinamide] reads 118 to 119 °C.
The result for `O=C(NCc1ccc2c(c1)OCO2)c1cccnc1Oc1cccnc1` [Example 182, N-Benzo[1,3]dioxol-5-ylmethyl-2-(pyridin-3-yloxy)-nicotinamide] reads 130 to 131 °C; that for `O=C(NCc1ccccc1Cl)c1cccnc1Oc1cccc(C(F)(F)F)c1` [Example 184, N-(2-Chloro-benzyl)-2-(3-trifluoromethyl-phenoxy)-nicotinamide], 88 to 90 °C; that for `O=C(Cc1ccccc1Cl)Nc1cccnc1Oc1cccnc1` [Example 185, 2-(2-Chloro-phenyl)-N-[2-(pyridin-3-yloxy)-pyridin-3-yl]-acetamide], 137 to 139 °C.
For the compound `CC(=O)c1ccc(CC(=O)Nc2cccnc2Oc2cccnc2)cc1` [Example 186, 2-(4-Acetyl-phenyl)-N-[2-(pyridin-3-yloxy)-pyridin-3-yl]-acetamide], the melting point fell in the range of 110 to 112 °C.

Source of the values: US6380218B1, “Nicotinamide derivatives” (Pfizer Inc, priority 1997, dated 2002).
